Assay results published in ChEMBL document CHEMBL3991601, “The target landscape of clinical kinase drugs” (Science, 2017).
Active and inactive are the calls of the source. For most assays here, no stated cut-off is given here; in the data, actives have a measured Kd and inactives only a lower limit.

Legend:
[1] = target: AP2-associated protein kinase 1 (Homo sapiens, UniProt Q2M2I8)
[2] = target: T1, Probable ATP-dependent RNA helicase DDX6 (Homo sapiens, UniProt P26196)
T1 sequence (P26196 whole entry): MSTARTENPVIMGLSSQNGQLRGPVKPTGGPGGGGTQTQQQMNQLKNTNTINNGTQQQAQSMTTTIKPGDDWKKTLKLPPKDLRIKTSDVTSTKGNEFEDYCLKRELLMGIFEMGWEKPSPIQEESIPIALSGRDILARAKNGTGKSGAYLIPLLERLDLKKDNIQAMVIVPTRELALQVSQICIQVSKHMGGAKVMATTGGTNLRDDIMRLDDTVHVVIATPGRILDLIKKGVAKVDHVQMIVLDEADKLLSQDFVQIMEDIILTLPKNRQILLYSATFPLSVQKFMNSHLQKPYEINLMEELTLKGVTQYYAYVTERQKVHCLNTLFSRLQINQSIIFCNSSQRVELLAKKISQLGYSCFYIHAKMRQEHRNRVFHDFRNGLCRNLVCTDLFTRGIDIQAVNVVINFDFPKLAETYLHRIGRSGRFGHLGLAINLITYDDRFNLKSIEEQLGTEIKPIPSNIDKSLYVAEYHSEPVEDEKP

[3] = target: T2, Ephrin type-B receptor 3 (Homo sapiens, UniProt P54753)
T2 sequence (P54753 whole entry): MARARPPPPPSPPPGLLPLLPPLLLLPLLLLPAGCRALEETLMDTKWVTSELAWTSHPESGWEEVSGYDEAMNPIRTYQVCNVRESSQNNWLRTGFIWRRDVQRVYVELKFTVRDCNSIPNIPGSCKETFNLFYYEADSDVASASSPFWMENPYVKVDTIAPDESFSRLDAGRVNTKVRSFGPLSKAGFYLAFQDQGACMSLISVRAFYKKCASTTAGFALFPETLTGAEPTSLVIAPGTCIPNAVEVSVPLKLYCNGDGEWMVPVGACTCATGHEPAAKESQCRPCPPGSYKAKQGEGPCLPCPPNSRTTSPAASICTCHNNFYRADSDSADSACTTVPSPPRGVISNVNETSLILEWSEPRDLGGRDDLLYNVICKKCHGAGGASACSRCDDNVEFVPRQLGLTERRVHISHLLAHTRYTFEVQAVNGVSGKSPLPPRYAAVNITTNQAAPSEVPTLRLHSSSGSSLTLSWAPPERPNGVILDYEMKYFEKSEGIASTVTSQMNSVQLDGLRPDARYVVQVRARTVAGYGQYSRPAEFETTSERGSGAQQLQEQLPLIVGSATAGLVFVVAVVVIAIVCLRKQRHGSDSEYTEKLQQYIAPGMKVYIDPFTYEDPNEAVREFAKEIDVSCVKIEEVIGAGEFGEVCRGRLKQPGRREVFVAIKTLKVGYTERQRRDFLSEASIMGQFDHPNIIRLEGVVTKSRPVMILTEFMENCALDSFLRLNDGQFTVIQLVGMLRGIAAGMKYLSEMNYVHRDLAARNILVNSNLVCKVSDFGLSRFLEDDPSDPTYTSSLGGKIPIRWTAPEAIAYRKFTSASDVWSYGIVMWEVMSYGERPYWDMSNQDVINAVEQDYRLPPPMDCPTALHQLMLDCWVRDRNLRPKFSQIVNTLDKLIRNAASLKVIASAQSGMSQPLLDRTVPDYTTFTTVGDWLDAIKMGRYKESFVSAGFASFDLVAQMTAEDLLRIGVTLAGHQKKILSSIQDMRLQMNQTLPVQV

[4] = target: Tyrosine-protein kinase Fer (Homo sapiens, UniProt P16591)
[5] = target: LIM domain kinase 1 (Homo sapiens, UniProt P53667)
[6] = target: Mitogen-activated protein kinase kinase kinase 1 (Homo sapiens, UniProt Q13233)
[7] = target: Myosin light chain kinase, smooth muscle (Homo sapiens, UniProt Q15746)
[8] = target: Platelet-derived growth factor receptor beta (Homo sapiens, UniProt P09619)
[9] = target: Serine/threonine-protein kinase N1 (Homo sapiens, UniProt Q16512)
[10] = target: Serine/threonine-protein kinase N2 (Homo sapiens, UniProt Q16513)
[11] = target: Protein kinase C beta type (Homo sapiens, UniProt P05771)
[12] = target: T3, Serine/threonine-protein kinase D3 (Homo sapiens, UniProt O94806)
T3 sequence (O94806 whole entry): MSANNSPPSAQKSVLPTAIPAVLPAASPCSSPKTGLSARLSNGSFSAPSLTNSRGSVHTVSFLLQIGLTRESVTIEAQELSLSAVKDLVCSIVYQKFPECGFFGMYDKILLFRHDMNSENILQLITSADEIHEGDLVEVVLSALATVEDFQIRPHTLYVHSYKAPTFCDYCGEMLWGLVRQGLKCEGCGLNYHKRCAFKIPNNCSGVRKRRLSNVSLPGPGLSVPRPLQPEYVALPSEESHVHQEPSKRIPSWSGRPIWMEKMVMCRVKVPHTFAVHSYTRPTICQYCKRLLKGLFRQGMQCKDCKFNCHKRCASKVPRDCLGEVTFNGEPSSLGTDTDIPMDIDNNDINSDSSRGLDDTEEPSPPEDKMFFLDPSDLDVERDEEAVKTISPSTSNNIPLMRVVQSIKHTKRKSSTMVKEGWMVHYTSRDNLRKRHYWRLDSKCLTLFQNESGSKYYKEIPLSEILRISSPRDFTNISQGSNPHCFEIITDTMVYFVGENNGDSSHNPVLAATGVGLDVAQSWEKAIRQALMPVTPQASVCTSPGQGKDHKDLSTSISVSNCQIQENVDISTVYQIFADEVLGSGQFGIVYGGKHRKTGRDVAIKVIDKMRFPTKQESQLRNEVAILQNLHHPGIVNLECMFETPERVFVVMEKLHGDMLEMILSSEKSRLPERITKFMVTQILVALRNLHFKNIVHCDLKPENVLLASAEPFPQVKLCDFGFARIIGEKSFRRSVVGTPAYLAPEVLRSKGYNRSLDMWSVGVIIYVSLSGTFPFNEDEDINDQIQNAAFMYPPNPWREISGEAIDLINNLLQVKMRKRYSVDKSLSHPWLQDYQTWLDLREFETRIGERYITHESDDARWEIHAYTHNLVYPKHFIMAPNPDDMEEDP

[13] = target: Ribosomal protein S6 kinase alpha-3 (Homo sapiens, UniProt P51812)
[14] = target: Serine/threonine-protein kinase SIK3 (Homo sapiens, UniProt Q9Y2K2)

Serine/threonine-protein kinase N1, sequence (Q16512 whole entry): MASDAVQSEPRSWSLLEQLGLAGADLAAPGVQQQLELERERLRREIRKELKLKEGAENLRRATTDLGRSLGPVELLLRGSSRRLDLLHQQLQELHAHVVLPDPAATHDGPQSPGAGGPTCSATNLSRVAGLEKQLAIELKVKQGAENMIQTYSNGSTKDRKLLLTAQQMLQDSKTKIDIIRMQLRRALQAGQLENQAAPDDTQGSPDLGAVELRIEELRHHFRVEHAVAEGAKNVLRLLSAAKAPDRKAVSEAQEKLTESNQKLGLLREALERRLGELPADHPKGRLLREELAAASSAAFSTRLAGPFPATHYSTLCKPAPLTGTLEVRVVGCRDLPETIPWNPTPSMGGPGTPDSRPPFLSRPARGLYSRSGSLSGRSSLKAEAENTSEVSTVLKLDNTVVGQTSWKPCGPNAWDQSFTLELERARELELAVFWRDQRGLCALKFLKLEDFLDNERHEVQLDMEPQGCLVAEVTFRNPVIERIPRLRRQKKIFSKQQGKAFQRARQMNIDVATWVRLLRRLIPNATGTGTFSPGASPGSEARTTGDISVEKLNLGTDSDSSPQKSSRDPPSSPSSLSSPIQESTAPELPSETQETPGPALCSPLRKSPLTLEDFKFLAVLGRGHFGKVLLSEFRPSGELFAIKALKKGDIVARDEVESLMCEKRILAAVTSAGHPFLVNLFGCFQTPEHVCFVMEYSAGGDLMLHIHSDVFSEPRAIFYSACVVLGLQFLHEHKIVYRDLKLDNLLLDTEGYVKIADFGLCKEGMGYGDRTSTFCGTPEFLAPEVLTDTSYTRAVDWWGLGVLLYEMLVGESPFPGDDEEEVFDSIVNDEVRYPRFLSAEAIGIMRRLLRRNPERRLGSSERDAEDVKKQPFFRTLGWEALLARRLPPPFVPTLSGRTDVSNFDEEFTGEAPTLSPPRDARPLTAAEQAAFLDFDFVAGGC
Mitogen-activated protein kinase kinase kinase 1, sequence (Q13233 whole entry): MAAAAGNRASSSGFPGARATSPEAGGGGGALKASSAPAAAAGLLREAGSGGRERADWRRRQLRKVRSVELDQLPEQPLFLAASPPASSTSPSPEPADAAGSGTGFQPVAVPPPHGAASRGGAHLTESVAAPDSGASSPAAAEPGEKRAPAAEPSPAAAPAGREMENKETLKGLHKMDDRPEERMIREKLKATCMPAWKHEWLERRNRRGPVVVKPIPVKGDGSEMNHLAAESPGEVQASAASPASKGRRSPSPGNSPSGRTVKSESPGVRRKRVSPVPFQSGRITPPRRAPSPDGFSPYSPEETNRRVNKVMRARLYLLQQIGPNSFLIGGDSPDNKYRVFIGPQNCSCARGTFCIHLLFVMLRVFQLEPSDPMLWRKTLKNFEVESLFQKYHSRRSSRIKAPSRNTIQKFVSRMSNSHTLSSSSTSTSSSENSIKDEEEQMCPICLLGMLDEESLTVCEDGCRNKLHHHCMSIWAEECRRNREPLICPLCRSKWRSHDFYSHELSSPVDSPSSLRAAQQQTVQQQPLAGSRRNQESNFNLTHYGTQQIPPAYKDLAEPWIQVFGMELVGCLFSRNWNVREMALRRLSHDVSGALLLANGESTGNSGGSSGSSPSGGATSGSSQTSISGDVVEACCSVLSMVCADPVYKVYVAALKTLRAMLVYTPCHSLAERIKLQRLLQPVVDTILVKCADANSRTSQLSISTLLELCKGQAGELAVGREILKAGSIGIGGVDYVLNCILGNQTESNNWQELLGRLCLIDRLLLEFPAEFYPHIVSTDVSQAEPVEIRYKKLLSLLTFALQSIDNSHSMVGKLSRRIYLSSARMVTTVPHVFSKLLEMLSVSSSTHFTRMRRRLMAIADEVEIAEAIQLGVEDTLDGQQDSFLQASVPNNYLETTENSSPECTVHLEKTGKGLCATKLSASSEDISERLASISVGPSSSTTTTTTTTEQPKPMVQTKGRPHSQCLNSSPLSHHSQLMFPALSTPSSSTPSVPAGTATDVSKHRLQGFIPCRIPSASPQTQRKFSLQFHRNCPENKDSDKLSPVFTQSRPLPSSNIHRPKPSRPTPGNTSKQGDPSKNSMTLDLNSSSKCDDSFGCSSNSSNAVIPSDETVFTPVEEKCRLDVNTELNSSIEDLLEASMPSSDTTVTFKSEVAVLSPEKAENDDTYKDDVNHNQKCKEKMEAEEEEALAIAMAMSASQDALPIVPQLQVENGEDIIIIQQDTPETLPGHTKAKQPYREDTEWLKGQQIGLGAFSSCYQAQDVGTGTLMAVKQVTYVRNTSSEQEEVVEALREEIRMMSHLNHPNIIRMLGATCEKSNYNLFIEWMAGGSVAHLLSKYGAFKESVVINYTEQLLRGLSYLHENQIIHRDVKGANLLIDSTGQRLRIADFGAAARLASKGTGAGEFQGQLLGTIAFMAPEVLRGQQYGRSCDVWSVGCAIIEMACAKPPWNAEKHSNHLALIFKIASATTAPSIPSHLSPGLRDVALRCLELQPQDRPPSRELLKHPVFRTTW
LIM domain kinase 1, sequence (P53667 whole entry, the tested form may be a part): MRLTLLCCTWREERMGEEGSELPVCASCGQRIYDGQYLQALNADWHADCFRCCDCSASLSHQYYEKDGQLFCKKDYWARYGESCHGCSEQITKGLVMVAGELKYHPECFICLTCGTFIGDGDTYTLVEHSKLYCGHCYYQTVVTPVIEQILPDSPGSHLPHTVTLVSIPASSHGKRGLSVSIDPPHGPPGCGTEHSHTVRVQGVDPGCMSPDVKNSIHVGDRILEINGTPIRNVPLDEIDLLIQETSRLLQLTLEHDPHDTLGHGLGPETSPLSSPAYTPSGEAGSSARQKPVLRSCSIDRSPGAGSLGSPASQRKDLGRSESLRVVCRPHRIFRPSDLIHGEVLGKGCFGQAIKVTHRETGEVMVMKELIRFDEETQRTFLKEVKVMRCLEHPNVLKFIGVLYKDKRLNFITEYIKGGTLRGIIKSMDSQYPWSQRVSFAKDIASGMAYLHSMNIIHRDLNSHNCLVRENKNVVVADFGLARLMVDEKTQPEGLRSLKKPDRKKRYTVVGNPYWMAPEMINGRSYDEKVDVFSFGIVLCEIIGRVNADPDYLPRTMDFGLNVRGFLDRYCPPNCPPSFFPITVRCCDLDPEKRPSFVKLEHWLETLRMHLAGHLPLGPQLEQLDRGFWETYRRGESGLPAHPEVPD
Tyrosine-protein kinase Fer, sequence (P16591 whole entry, the tested form may be a part): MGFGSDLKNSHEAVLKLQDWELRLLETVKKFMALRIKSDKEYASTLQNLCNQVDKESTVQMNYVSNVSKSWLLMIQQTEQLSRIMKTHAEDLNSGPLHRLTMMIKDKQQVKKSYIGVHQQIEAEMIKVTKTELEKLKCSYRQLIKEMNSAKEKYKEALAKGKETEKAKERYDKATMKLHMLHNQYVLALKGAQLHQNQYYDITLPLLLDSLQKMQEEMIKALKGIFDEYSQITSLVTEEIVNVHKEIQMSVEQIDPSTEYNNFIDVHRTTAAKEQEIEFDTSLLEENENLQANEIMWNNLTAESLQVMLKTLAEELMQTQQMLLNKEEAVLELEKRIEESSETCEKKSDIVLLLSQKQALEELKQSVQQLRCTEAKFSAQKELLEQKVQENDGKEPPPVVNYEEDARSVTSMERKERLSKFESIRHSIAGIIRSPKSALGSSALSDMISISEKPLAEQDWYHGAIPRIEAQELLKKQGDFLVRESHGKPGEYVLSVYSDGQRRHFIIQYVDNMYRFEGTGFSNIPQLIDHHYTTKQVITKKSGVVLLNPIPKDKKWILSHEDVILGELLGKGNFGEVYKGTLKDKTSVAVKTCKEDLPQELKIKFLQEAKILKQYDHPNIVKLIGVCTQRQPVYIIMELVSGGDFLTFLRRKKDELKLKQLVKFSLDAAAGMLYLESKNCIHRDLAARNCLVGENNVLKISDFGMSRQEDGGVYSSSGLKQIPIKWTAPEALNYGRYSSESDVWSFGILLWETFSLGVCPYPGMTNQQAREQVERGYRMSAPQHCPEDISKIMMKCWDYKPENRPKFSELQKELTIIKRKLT
Serine/threonine-protein kinase N2, sequence (Q16513 whole entry): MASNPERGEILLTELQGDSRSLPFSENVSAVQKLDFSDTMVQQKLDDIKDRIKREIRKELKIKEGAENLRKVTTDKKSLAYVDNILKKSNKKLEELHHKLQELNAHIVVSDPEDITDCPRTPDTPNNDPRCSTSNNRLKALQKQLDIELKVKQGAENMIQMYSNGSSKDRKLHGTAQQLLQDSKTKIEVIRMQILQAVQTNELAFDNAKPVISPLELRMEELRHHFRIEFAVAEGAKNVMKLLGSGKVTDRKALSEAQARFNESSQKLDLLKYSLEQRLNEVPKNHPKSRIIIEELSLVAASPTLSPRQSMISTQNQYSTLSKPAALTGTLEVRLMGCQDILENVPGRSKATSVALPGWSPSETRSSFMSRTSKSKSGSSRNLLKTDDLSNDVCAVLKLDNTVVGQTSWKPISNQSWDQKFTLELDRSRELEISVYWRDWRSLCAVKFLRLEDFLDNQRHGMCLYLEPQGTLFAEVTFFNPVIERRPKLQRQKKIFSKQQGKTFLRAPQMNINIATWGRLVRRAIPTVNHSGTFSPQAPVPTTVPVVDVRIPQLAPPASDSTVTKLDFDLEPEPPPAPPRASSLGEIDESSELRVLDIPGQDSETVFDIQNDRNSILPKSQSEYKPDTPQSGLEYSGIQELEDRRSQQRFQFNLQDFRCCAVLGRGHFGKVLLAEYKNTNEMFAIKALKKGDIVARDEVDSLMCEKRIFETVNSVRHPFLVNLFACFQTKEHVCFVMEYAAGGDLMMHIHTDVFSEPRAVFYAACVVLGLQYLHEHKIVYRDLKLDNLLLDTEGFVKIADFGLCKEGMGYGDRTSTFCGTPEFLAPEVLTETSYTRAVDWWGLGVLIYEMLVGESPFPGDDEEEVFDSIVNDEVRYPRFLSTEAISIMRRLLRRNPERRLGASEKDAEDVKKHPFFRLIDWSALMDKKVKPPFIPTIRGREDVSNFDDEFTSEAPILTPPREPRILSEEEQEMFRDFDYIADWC

Row | SMILES | Kd [1] | Kd [2] | Kd [3] | Kd [4] | Kd [5] | Kd [6] | Kd [7] | Kd [8] | Kd [9] | Kd [10] | Kd [11] | Kd [12] | Kd [13] | Kd [14]
1 | Cn1c(=O)c(F)c(Nc2ccc(I)cc2F)c2c(=O)n(C[C@@H](O)CO)cnc21 [TAK-733] | > 30 µM (inactive) | > 30 µM (inactive) | > 30 µM (inactive) | > 30 µM (inactive) | > 30 µM (inactive) | > 30 µM (inactive) | > 30 µM (inactive) | > 30 µM (inactive) | > 30 µM (inactive) | > 30 µM (inactive) | > 30 µM (inactive) | > 30 µM (inactive) | > 30 µM (inactive) | > 30 µM (inactive)
2 | Cc1cc(C(=O)Nc2cc(Oc3ccc4nc(NC(=O)C5CC5)cn4n3)ccc2C)n(C)n1 [TAK-593] | 2.44 µM (active) | > 30 µM (inactive) | > 30 µM (inactive) | > 30 µM (inactive) | > 30 µM (inactive) | > 30 µM (inactive) | > 30 µM (inactive) |  | > 30 µM (inactive) | > 30 µM (inactive) | > 30 µM (inactive) | > 30 µM (inactive) | > 30 µM (inactive) | > 30 µM (inactive)
3 | CN1CCN(c2nc(C3=C(c4c[nH]c5ccccc45)C(=O)NC3=O)c3ccccc3n2)CC1 [SOTRASTAURIN] | > 30 µM (inactive) | > 30 µM (inactive) | > 30 µM (inactive) | > 30 µM (inactive) | > 30 µM (inactive) | > 30 µM (inactive) | > 30 µM (inactive) |  | 2.95 µM |  |  | > 30 µM (inactive) | > 30 µM (inactive) | > 30 µM (inactive)
4 | CC1(COc2ccc3c(c2)ncn3-c2ccc3cccc(N4CCC(N)CC4)c3n2)COC1 [CRENOLANIB] | > 30 µM (inactive) | > 30 µM (inactive) | > 30 µM (inactive) | > 30 µM (inactive) | > 30 µM (inactive) | > 30 µM (inactive) | > 30 µM (inactive) |  | 0.165 µM (active) | 1.21 µM (active) | > 30 µM (inactive) | 14.8 µM (active) | > 30 µM (inactive) | 0.002 µM (active)
5 | CC(C)CC(=O)Nc1[nH]nc2c1CN(C(=O)C1CCN(C)CC1)C2(C)C [PHA-793887] | > 30 µM (inactive) | > 30 µM (inactive) | > 30 µM (inactive) |  | > 30 µM (inactive) | > 30 µM (inactive) | > 30 µM (inactive) | > 30 µM (inactive) |  | > 30 µM (inactive) | > 30 µM (inactive) | 0.065 µM (active) | > 30 µM (inactive) | > 30 µM (inactive)
6 | Cn1cc(-c2[nH]c3cc(NC(=O)[C@H](N)C4CCCCC4)cc4c3c2C=NNC4=O)cn1 | 0.002 µM (active) | > 30 µM (inactive) | > 30 µM (inactive) | > 30 µM (inactive) | 0.133 µM (active) |  | > 30 µM (inactive) | 0.1 µM (active) | 0.119 µM (active) | > 30 µM (inactive) | > 30 µM (inactive) | > 30 µM (inactive) | > 30 µM (inactive) | 0.386 µM (active)
7 | CCc1nc(C(N)=O)c(Nc2ccc(N3CCC(N4CCN(C)CC4)CC3)c(OC)c2)nc1NC1CCOCC1 [GILTERITINIB] | 0.025 µM (active) | > 30 µM (inactive) | > 30 µM (inactive) |  | > 30 µM (inactive) | > 30 µM (inactive) | 0.188 µM (active) | 0.51 µM (active) | > 30 µM (inactive) | > 30 µM (inactive) | > 30 µM (inactive) | > 30 µM (inactive) | 2.66 µM (active) | > 30 µM (inactive)
8 | CCN1CCN(Cc2ccc(Nc3ncc(F)c(-c4cc(F)c5nc(C)n(C(C)C)c5c4)n3)nc2)CC1 [ABEMACICLIB] |  | > 30 µM (inactive) | > 30 µM (inactive) | > 30 µM (inactive) | > 30 µM (inactive) | > 30 µM (inactive) | > 30 µM (inactive) | > 30 µM (inactive) | > 30 µM (inactive) | > 30 µM (inactive) | 1.62 µM (active) | 1.84 µM (active) | > 30 µM (inactive) | > 30 µM (inactive)
9 | COc1cccc(Nc2ncnn3ccc(CN4CC[C@@H](N)[C@H](O)C4)c23)c1 [BMS-690514] | 1.41 µM (active) |  |  | > 30 µM (inactive) | > 30 µM (inactive) | > 30 µM (inactive) | > 30 µM (inactive) | > 30 µM (inactive) | 1.34 µM (active) | > 30 µM (inactive) | > 30 µM (inactive) | 0.493 µM (active) | > 30 µM (inactive) | > 30 µM (inactive)
10 | C=CCN(/C=C1/C(=O)O[C@H](COC)[C@@]2(C)C1=C(O)C(=O)C1=C2[C@H](OC(C)=O)C[C@]2(C)C(=O)CC[C@@H]12)CC=C [SONOLISIB] | > 30 µM (inactive) |  | > 30 µM (inactive) | > 30 µM (inactive) | > 30 µM (inactive) | > 30 µM (inactive) | > 30 µM (inactive) | > 30 µM (inactive) | > 30 µM (inactive) | > 30 µM (inactive) | > 30 µM (inactive) | > 30 µM (inactive) | > 30 µM (inactive) | 0.011 µM
11 | N#CCNC(=O)c1ccc(-c2ccnc(Nc3ccc(N4CCOCC4)cc3)n2)cc1 [MOMELOTINIB] | 0.004 µM (active) | > 30 µM (inactive) | > 30 µM (inactive) | > 30 µM (inactive) | > 30 µM (inactive) | > 30 µM (inactive) | > 30 µM (inactive) | > 30 µM (inactive) | > 30 µM (inactive) | > 30 µM (inactive) | > 30 µM (inactive) |  | > 30 µM (inactive) | 0.859 µM (active)
